Assay results taken from patent publication US11198869B2, “Angelman syndrome antisense treatment” (The Texas A&M University System, priority 2017, dated 2021).

Legend:
[1] = tested on: SNURF; assay: RNA-sequencing of Angelman syndrome iPSC neurons: SNURF; type: cell-based, human; conditions: 30 μM; six days post-treatment; RNA-seq
Description: (§1) RNA was isolated using Qiagen RNAeasy Plus (74136, Qiagen, Hilden, Germany). RNA concentration was determined using Qubit Fluorometric Quantitation (Thermo Fisher Scientific) and RNA quality was assessed using a 4200 Agilent TapeStation (Agilent, Santa Clara, Calif.). RNA-sequencing libraries were generated using the Illumina TruSeq Stranded Total RNA kit (20020597, Illumina, Inc., San Diego, Calif.) according to the manufacturer's protocol. 75 base-pair paired-end sequencing was performed using a NextSeq 500 (IIlumina, San Diego, Calif.) at the Texas A&M Institute for Genome Sciences and Society Genomics core. Raw sequencing reads were processed using CASAVA. The resulting FASTQ sequences were examined using FASTQC. […]
(§2) To determine whether ASO-4.4.PS.L and ASO-6.1.PO-1.O affect the levels of RNA transcripts encoded by the PWS polycistronic transcript, RNA-sequencing was performed on AS iPS cells treated with each ASO and the steady state RNA levels of SNURF, SNRPN, the SNORD116 host-gene transcript (SNHG116), the SNORD116 snoRNAs, IPW, the SNORD115 host-gene transcript (SNHG115), the SNORD115 snoRNAs, and UBE3A-AS were quantified. UBE3A steady state RNA levels were also measured. […]

[2] = tested on: SNORD115 host-gene transcript (SNHG115); assay: RNA-sequencing of Angelman syndrome iPSC neurons: SNHG115; type: cell-based, human; conditions: 30 μM, six days post-treatment, RNA-seq
Description: as §1, §2

[3] = tested on: UBE3A-AS; assay: RNA-sequencing of Angelman syndrome iPSC neurons: UBE3A-AS; type: cell-based, human; conditions: 30 μM; RNA-seq; relative to vehicle
Description: as §1, §2

[4] = tested on: UBE3A; assay: RNA-sequencing of Angelman syndrome iPSC neurons: UBE3A; type: cell-based, human; conditions: 30 μM; six days post-treatment; RNA-seq
Description: as §1, §2

[5] = tested on: SNORD109A/B; assay: SNORD109A/B steady state RNA (qRT-PCR) in GABAergic iPSC-derived neurons; conditions: 10-point dose curve 1 nM-30 μM; 14 DIV to 20 DIV

Compound	Difference, SNURF RNA level relative to vehicle [1]	Difference, SNH115G RNA level relative to vehicle [2]	Difference, SNH115G RNA level relative to vehicle ([2]; listed as ASO-6.1.PS-1.O)	effect on UBE3A-AS RNA levels [3]	Difference, UBE3A RNA level relative to vehicle [4]	effect on SNORD109A/B RNA levels (in words) [5]
C^O*U^O*G^O*G^O-t*g*t*c*a*a*c*a*a*g-C^O*C^O*A^O*A^o [ASO-6.1.PO-1.O]	−0.53	significantly reduced	−0.55	−2.8 fold change	0.74	
U^O*A^O*G^O*A^O*A^O*t*g*g*c*a*c*a*t*c*t*C^O*U^O*U^O*G^O*G^O [ASO-4]						significant effect on the RNA levels of IPW, SNORD115, and SNORD109A/B but not in a dose dependent manner
A^L*G^L*A^L*a*t*g*g*c*a*c*a*t*c*t*5mC^L*T^L*T^L*G^L (NNNATGGCACATCTNNNN; LNA gapmer, PS, 5-methylcytosine, chemistry not fully specified) [ASO-4.4.PS.L]	0.49			−6.1 fold change	0.90	
CC[C@@]1(O)C(=O)OCc2c1cc1n(c2=O)Cc2cc3c(CN(C)C)c(O)ccc3nc2-1 [Topotecan, reference compound]						significant effect on SNORD116, IPW, SNORD115, and SNORD109A/B RNA levels that was dose dependent
